In publication PMC3596085 (International journal for parasitology, drugs and drug …, 2012):
Like-named read-outs stand apart in the source and are kept apart here.

Tests used:
human CYP51 [1] = experiment: Reconstitution of CYP51 activity in vitro; format: biochemical; conditions: 60′ reaction, lanosterol
[2] = test system: NIH/3T3 mouse embryonic fibroblasts; experiment: Growth inhibition assay using 5-bromodeoxyuridine incorporation; format: cell-based; conditions: 50 μM, 24 h treatment, BrdU incorporation, vs DMSO
human CYP3A4 [3] = molecular target: T1, human CYP3A4 (Homo sapiens, UniProt P08684)
[4] = Growth inhibition assay using 5-bromodeoxyuridine incorporation; format: cell-based, mouse; conditions: mouse
T. cruzi CYP51 [5] = molecular target: T. cruzi CYP51 (Trypanosoma cruzi, UniProt Q7Z1V1); experiment: CYP51 spectral titration; format: binding
[6] = VNI oral pharmacokinetics in mouse plasma; format: in vivo; conditions: 25 mg/kg
[7] = Acute mice toxicity study; format: in vivo, mouse; conditions: female, Swiss Webster, mouse, in vivo, po
[8] = test system: Female Swiss Webster mice; experiment: Acute mice toxicity study; format: in vivo, mouse; conditions: oral, up to 400 mg/kg, up to 48 h
T. cruzi CYP51 [9] = conditions: standard CYP51 reaction conditions; ref Lepesheva et al., 2007; cited from earlier work
T. brucei CYP51 = conditions: standard CYP51 reaction conditions; ref Lepesheva et al., 2007; cited from earlier work
human CYP51 [10] = conditions: standard CYP51 reaction conditions; ref Lepesheva et al., 2008; cited from earlier work
[11] = test system: T. cruzi CYP51 gene expression; conditions: ref Lepesheva et al., 2010a; cited from earlier work
Trypanosoma cruzi = conditions: ref Villalta et al., submitted for publication; cited from earlier work
T. brucei = conditions: ref Lepesheva et al., 2010b; cited from earlier work
human CYP3A4 [12] = molecular target: T1, human CYP3A4; experiment: Inhibitory effect on CYP3A4

T1 sequence (P08684 whole entry): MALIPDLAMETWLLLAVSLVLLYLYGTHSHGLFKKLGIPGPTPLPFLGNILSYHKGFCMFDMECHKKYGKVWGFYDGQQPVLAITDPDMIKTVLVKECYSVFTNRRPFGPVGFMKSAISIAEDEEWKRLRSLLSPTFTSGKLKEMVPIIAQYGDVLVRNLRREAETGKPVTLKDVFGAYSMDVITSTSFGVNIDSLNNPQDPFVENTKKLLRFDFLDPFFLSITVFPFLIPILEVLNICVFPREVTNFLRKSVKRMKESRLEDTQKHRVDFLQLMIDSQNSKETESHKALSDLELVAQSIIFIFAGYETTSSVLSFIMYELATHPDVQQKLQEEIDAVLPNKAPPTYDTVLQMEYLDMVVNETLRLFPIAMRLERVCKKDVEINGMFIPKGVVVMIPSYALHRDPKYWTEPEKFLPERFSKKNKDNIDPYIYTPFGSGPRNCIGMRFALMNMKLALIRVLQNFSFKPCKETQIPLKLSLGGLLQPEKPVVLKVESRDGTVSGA
Sequence of T. cruzi CYP51 (Trypanosoma cruzi, UniProt Q7Z1V1) (Q7Z1V1 whole entry): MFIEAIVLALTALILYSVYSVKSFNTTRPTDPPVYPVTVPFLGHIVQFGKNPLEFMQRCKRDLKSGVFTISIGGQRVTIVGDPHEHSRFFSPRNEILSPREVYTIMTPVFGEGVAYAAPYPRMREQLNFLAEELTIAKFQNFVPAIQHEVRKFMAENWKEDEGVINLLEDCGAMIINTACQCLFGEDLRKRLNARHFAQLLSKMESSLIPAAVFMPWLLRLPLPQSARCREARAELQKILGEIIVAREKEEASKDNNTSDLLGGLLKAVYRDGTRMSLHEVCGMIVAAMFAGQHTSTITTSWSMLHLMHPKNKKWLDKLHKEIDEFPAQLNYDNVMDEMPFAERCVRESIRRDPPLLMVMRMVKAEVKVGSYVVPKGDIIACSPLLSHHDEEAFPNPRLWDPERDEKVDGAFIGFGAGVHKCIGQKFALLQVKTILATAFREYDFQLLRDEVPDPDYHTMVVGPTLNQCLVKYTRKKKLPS

O=C(N[C@H](Cn1ccnc1)c1ccc(Cl)cc1Cl)c1ccc(-c2nnc(-c3ccccc3)o2)cc1 (single isomer, unassigned) [VNI S-enantiomer]
CYP51 inhibition, Human (inhibitor/enzyme molar ratio for 50% inhibition) (human CYP51 [1]): >200
Mammalian cell growth: % of viable 3T3 cells at 50 μM [2]: 77.1 ± 2.6%
IC50 (human CYP3A4 [3]): 290 ± 19 nM

CC(=O)N1CCN(c2ccc(OCC3COC(Cn4ccnc4)(c4ccc(Cl)cc4Cl)O3)cc2)CC1 (stereo not drawn) [Ketoconazole, reference compound]
viability at 24 h, 50 µM [4]: 0%

O=C(N[C@@H](Cn1ccnc1)c1ccc(Cl)cc1Cl)c1ccc(-c2nnc(-c3ccccc3)o2)cc1 [VNI, (R)-N-(1-(2,4-dichlorophenyl)-2-(1H-imidazol-1-yl)ethyl)-4-(5-phenyl-1,3,4-oxadiazol-2-yl)benzamide]
Kd (T. cruzi CYP51 [5]): 90 ± 10 nM
CYP51 inhibition, Human (inhibitor/enzyme molar ratio for 50% inhibition) (human CYP51 [1]): >200
Mammalian cell growth: % of viable 3T3 cells at 50 μM ([2]; 50 µM): 76.8 ± 2.1%
concentration at 2 h [6]: 40 µM
concentration at 8 h [6]: > 20 µM
NOAEL at 48 h [7]: 400 mg/kg
mortality [8]: neither leads to mortality
inhibition of T. cruzi CYP51 activity at 1:1 molar ratio to the enzyme (T. cruzi CYP51 [9]): completely inhibit
inhibition of T. brucei CYP51 activity at 1:1 molar ratio to the enzyme (T. brucei CYP51): completely inhibit
inhibition of the human CYP51 ortholog (human CYP51 [10]): do not inhibit
induction of T. cruzi CYP51 gene expression [11]: do not induce
effect in the murine model of Chagas disease (Trypanosoma cruzi): Curative effect
parasitemia in the mouse model of T. brucei infection (T. brucei): slows down parasitemia
IC50 (human CYP3A4 [12]): 405 ± 23 nM

VNI/VNF combination
CYP51 inhibition, Human (inhibitor/enzyme molar ratio for 50% inhibition) (human CYP51 [1]): 15 ± 0.9
Mammalian cell growth: % of viable 3T3 cells at 50 μM [2]: 77.2 ± 6.3%
IC50 (human CYP3A4 [3]): 3580 ± 271 nM
